The target of test [1] is T1, human recombinant ETA receptors (Homo sapiens, UniProt P25101).
T1 construct: expressed in transfected cells; host or cells: CHO cells
T1 sequence (P25101 21-427): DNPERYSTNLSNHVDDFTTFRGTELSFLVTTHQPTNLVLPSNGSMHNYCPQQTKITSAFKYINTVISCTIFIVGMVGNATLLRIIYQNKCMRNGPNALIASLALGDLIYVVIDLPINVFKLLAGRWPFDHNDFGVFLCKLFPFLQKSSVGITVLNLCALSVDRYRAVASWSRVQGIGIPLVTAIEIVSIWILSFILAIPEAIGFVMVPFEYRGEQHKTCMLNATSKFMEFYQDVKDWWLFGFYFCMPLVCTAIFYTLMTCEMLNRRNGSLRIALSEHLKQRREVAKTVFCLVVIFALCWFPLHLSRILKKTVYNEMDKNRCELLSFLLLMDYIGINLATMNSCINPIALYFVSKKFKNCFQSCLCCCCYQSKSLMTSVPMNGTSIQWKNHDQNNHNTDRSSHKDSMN
Description: Inhibition of [125I]ET-1 binding to membranes from CHO cells carrying human ETA receptors. How it is done:
(§1) 1) Inhibition of Endothelin Binding to Membranes from CHO Cells Carrying Human ET Receptors:
(§2) For competition binding studies, membranes of CHO cells expressing human recombinant ETA or ETB receptors were used.
(§3) The assay was performed in 200 uL 50 mM Tris/HCl buffer, pH 7.4, including 25 mM MnCl2, 1 mM EDTA and 0.5% (w/v) BSA in polypropylene microtiter plates. […] After 2 h, the membranes were filtered on filterplates containing GF/C filters (Unifilterplates from Can berra Packard S. A. Zürich, Switzerland). To each well, 50 uL of scintillation cocktail was added (MicroScint 20, Can berra Packard S. A. Zürich, Switzerland) and the filter plates counted in a microplate counter (TopCount, Can berra Packard S. A. Zürich, Switzerland).
(§4) All the test compounds were dissolved, diluted and added in DMSO.

For test [2], the target named is T2, human recombinant ETB receptors (Homo sapiens, UniProt P24530).
T2 construct: expressed in transfected cells; host or cells: CHO cells
T2 sequence (P24530 27-442): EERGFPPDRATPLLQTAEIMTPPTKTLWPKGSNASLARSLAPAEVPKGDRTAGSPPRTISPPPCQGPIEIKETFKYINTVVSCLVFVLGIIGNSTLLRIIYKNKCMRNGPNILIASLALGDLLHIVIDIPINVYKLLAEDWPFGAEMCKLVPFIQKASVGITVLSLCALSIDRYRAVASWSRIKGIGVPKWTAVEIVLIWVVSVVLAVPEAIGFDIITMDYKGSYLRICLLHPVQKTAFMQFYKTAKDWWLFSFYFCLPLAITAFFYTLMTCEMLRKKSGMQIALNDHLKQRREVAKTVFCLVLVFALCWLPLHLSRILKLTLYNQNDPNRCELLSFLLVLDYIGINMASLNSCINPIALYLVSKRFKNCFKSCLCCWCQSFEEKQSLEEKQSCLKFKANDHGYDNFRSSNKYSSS
Put plainly: Inhibition of [125I]ET-1 binding to membranes from CHO cells carrying human ETB receptors. How it is done: as §1, §2, §3, §4

Test [3] has as its target T3, rat aortic rings (ETA receptors) (Rattus norvegicus, UniProt P26684).
T3 construct: from tissue; host or cells: thoracic aorta rings of adult Wistar rats, endothelium removed
T3 sequence (P26684 21-426): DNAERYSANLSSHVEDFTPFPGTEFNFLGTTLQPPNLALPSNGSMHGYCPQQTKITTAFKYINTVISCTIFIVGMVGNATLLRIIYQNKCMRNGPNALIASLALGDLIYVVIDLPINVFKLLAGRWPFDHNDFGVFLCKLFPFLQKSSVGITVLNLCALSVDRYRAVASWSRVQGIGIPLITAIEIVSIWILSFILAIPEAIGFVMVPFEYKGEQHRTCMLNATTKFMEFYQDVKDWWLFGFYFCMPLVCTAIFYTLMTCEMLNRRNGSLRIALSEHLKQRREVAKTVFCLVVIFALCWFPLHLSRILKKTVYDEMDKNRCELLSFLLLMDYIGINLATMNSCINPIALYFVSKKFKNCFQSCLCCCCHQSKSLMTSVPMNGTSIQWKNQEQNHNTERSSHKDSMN
Put plainly: Inhibition of endothelin-1-induced contractions on isolated rat aortic rings. The note with it: read-out: pA2 (aortic rings) (converted). The class given is cell-based. How it is done:
(§5) 2) Inhibition of Endothelin-Induced Contractions on Isolated Rat Aortic Rings (ETA Receptors) and Rat Tracheal Rings (ETB Receptors):
(§6) Adult Wistar rats were anesthetized and exsanguinated. The thoracic aorta or trachea were excised, dissected and cut in 3–5 mm rings. The endothelium/epithelium was removed by gentle rubbing of the intimal surface. […] The rings were connected to force transducers and isometric tension was recorded (EMKA Technologies SA, Paris, France). The rings were stretched to a resting tension of 3 g (aorta) or 2 g (trachea). […] The functional inhibitory potency of the test compound was assessed by calculating the concentration ratio, i.e. the shift to the right of the EC50 induced by different concentrations of test compound. EC50 is the concentration of endothelin needed to get a half-maximal contraction, pA2 is the negative logarithm of the antagonist concentration which induces a two-fold shift in the EC50 value.

Test [4] concerns the target T4, rat tracheal rings (ETB receptors) (Rattus norvegicus, UniProt P21451).
T4 construct: from tissue; host or cells: tracheal rings of adult Wistar rats, epithelium removed
T4 sequence (P21451 27-442): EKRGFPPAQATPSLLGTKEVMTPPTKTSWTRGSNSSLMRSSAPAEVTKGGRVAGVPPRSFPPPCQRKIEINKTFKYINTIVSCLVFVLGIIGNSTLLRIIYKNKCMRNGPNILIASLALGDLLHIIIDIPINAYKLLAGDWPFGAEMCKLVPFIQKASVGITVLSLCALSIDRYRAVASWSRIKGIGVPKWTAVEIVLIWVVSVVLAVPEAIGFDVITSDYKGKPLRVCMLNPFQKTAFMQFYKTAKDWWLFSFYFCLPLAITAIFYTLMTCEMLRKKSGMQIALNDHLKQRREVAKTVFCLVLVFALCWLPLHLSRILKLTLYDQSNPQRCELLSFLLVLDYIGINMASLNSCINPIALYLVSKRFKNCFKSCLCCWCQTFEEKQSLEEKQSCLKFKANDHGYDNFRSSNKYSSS
Description: Inhibition of sarafotoxin S6c-induced contractions on isolated rat tracheal rings. The class given is cell-based. How it is done: as §5, §6

The structures appear in SMILES notation. Bounds are passed on as bounds.

What is called IC50 is the concentration at which inhibition is half-maximal. As for `Cc1ccc(-c2c(NS(=O)(=O)CCc3ccccc3)ncnc2OCCOc2ncccn2)cc1` [Example 1, 2-phenyl-ethanesulfonic acid {6-[2-(pyrimidin-2-yloxy)-ethoxy]-5-p-tolyl-pyrimidin-4-yl}-amide], the half-maximal inhibitory concentration (IC50) in test [1] was 0.027 µM; in test [2] it was 6.65 µM.

Turning to `Cc1ccc(-c2c(NS(=O)(=O)CCc3ccccc3)ncnc2OCCOc2ccc(C(F)(F)F)cn2)cc1` [Example 2, 2-phenyl-ethanesulfonic acid {5-p-tolyl-6-[2-(5-trifluoromethyl-pyridin-2-yloxy)-ethoxy]-pyrimidin-4-yl}-amide], the results for the IC50 in test [1] and in test [2] were 0.02 µM and 0.899 µM, respectively.

For `COc1ccccc1Oc1c(NS(=O)(=O)CCc2ccccc2)nc(-c2ncccn2)nc1OCCOc1ncc(Br)cn1` [Example 5, 2phenylethanesulfonic acid {5-(2-methoxy-phenoxy)-6-[2-(5-bromopyrimidin-2-yloxy)-ethoxy]-2-(2-pyrimidinyl)-4-pyrimidinyl}-amide], the Kb in test [3] was 0.00417 µM. Also, the half-maximal inhibitory concentration (IC50) in test [1] was 0.003 µM.

Regarding `Cc1ccc(-c2c(NS(=O)(=O)CCc3ccccc3)ncnc2OCCOc2ncc(Br)cn2)cc1` [Example 7], the Kb was 0.00148 µM in test [3] and 0.0851 µM in test [4]. The half-maximal inhibitory concentration (IC50) in test [1] was 0.004 µM; in test [2] it was 3.31 µM.

Regarding `Cc1ccc(-c2c(NS(=O)(=O)CCc3ccccc3)ncnc2OCCOc2ncc(C)cn2)cc1` [Example 8], the Kb in test [3] is 0.0372 µM.

In the case of `Cc1ccc(-c2c(NS(=O)(=O)CCc3ccccc3)nc(-c3ccncc3)nc2OCCOc2ncc(Br)cn2)cc1` [Example 10], the figures for the concentration for half-maximal inhibition (IC50) in test [1] and in test [2] were 0.009 µM and 2.41 µM, respectively.

On to `Cc1ccc(-c2c(NS(=O)(=O)CCc3ccccc3)nc(-c3ncccn3)nc2OCCOc2ncc(Cl)cn2)cc1` [Example 13], for which the IC50 in test [1] was 0.004 µM; in test [2], 3.68 µM.

Take `Cc1ccc(-c2c(NS(=O)(=O)CCc3ccccc3)nc(-c3ncccn3)nc2OCCOc2ncc(Br)cn2)cc1` [Example 14]: the 50% inhibitory concentration (IC50) in test [1] was found to be 0.006 µM; in test [2], 2.23 µM.

For `Cc1ccc(-c2c(NS(=O)(=O)CCc3ccccc3)ncnc2OCCOc2ncc(Br)cn2)cc1C` [Example 19], the IC50 was found to be 0.003 µM in test [1] and 1.93 µM in test [2].

In the case of `COc1cnc(OCCOc2nc(-c3ncccn3)nc(NS(=O)(=O)CCc3ccccc3)c2Oc2ccccc2OC)nc1` [Example 29], the IC50 in test [1] amounted to 0.01 µM.

As to `COc1cnc(OCCOc2nc(-c3cnccn3)nc(NS(=O)(=O)CCc3ccccc3)c2Oc2ccccc2OC)nc1` [Example 34], the Kb in test [3] was 0.0214 µM.

Turning to `COc1ccccc1Oc1c(NS(=O)(=O)CCc2ccccc2)nc(N2CCOCC2)nc1OCCOc1ncc(SC)cn1` [Example 39], the IC50 in test [1] was 0.003 µM; in test [2], 0.261 µM.

As for `COc1cccc(Oc2c(NS(=O)(=O)CCc3ccccc3)ncnc2OCCOc2ncc(Br)cn2)c1` [Example 46], the 50% inhibitory concentration (IC50) was 0.007 µM in test [1] and 2.36 µM in test [2].

Take `COc1cnc(OCCOc2ncnc(NS(=O)(=O)CCc3ccccc3)c2Oc2cccc(OC)c2)nc1` [Example 47]: the IC50 in test [1] came out at 0.024 µM; in test [2], 2.72 µM.

Take `Cc1ccc(-c2c(NS(=O)(=O)CCc3cccs3)ncnc2OCCOc2ncc(Br)cn2)cc1` [Example 49]: the concentration for half-maximal inhibition (IC50) in test [1] came to 0.004 µM; in test [2], 2.49 µM.

Regarding `O=S(=O)(CCc1cccs1)Nc1ncnc(OCCOc2ncc(Br)cn2)c1-c1ccc(Cl)cc1` [Example 52], the IC50 in test [1] amounted to 0.005 µM; in test [2], 1.77 µM.

Turning to `COc1ccccc1Oc1c(NS(=O)(=O)CCc2ccccn2)nc(-c2ccncc2)nc1OCCOc1ncc(Br)cn1` [Example 61], the Kb in test [3] was 0.0148 µM; in test [4], 0.0851 µM. Besides, the IC50 in test [1] amounted to 0.01 µM; in test [2], 1.14 µM.

For the compound `COc1ccccc1Oc1c(NS(=O)(=O)Cc2ccc(C)cc2)nc(-c2ccncc2)nc1OCCOc1ncc(Br)cn1` [Example 71], the 50% inhibitory concentration (IC50) in test [1] was 0.115 µM; in test [2], above 10 µM.

In the case of `Cc1ccc(-c2c(NS(=O)(=O)CCCc3ccccc3)ncnc2OCCOc2ncc(Br)cn2)cc1` [Example 75], in test [3], the Kb is 0.0174 µM.

The values above are taken from US7091201B2, “Arylalkane-sulfonamides having endothelin-antagonist activity” (Actelion Pharmaceuticals Ltd., priority 2000, dated 2006).
